From PMC12747936, “Rhamnose alleviates the proinflammatory response during endotoxemia via the CEACAM1/LGALS9-p38 axis” (Acta Biochimica et Biophysica Sinica, 2025)

Columns and labels:
[1] = molecular target: T1, CEACAM1 (THP-1-dMs) (Homo sapiens, UniProt P13688); test: CETSA and DARTS, western blot; assay type: biochemical; conditions: THP-1-dM lysate; CETSA 100 μM rhamnose, 2 h, 37-67°C; DARTS with pronase 1:1000, TNC buffer pH 8.0
T1 construct: endogenous protein in lysate of PMA-differentiated THP-1 macrophages
T1 sequence (P13688 35-526): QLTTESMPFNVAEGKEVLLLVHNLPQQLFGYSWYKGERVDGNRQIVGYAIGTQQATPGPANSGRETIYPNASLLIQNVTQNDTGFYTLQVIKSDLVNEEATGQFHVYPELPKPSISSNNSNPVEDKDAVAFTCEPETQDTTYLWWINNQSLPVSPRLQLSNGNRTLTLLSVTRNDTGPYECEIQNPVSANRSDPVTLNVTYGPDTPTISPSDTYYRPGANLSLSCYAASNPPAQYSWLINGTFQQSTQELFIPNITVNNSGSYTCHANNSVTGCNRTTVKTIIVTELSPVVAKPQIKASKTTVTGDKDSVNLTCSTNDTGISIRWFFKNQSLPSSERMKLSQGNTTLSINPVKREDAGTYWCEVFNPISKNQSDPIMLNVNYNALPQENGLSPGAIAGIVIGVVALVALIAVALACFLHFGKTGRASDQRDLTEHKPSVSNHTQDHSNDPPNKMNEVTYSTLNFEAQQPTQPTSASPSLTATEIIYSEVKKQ

[2] = molecular target: T2, CEACAM1 (BMDMs) (Mus musculus, UniProt P31809); test: CETSA and DARTS, western blot; assay type: biochemical; conditions: BMDM lysate; CETSA 100 μM rhamnose, 2 h, 37-67°C; DARTS with pronase 1:1000, TNC buffer pH 8.0
T2 construct: endogenous protein in lysate of murine bone marrow-derived macrophages; band 150-250 kDa region discussed
T2 sequence (P31809 35-521): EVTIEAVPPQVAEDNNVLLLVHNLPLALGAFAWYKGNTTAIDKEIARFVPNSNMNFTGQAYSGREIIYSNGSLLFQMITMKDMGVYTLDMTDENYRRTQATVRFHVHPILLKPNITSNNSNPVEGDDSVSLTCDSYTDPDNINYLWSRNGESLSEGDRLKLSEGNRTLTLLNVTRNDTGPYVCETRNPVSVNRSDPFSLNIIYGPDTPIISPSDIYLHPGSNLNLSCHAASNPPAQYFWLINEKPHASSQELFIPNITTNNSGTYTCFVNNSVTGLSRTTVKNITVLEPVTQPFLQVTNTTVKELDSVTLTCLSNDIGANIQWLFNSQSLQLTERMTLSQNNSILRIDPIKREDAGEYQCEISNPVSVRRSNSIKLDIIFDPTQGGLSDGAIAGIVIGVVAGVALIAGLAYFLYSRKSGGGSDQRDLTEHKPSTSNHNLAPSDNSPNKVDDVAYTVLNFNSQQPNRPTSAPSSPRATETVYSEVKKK

SMILES: C[C@@H]1OC(O)[C@H](O)[C@H](O)[C@H]1O (some centres unmarked) [rhamnose]
- CETSA and DARTS, western blot [1]: rhamnose treatment increased the resistance of the CEACAM1 protein to protease hydrolysis
- CETSA and DARTS, western blot [2]: CETSA also demonstrated that rhamnose reduced the degradation rate of CEACAM1 in heat-denatured BMDMs
